Experimental data taken from publication PMC7724630, “Improving the Stability of EGFR Inhibitor Cobalt(III) Prodrugs” (Inorganic Chemistry, 2020).
Several values for one entry are separate records, joined by “and”; a condition that tells them apart may be missing. Equal entries are not always repeated. Where two headings read alike, the source gives them in different places. Marks after values point to notes of the source that are not given here. Blank lines part the entries; values can stand above or below the compound they belong to.

Columns and labels:
[1] = tested on: A431 cancer cells; details: cited from earlier work
[2] = tested on: EGFR phosphorylation at position Y1068 and ERK 1/2 in A431 cells; assay: Western blot of EGFR signaling (pEGFR Y1068, pERK 1/2) after EGF stimulation; format: cell-based, Human; details: A431 serum-starved, 2 h drug, EGF 50 ng/mL 10 min, normoxic
[3] = target: EGFR (ErbB1) (Homo sapiens, UniProt P00533); assay: Cell-free kinase inhibition assay (ZLYTE, Select Screen); format: biochemical; details: 10 μM ATP (10-fold excess of ATP), 1% DMSO
Chain of EGFR (ErbB1) (P00533 25-1210): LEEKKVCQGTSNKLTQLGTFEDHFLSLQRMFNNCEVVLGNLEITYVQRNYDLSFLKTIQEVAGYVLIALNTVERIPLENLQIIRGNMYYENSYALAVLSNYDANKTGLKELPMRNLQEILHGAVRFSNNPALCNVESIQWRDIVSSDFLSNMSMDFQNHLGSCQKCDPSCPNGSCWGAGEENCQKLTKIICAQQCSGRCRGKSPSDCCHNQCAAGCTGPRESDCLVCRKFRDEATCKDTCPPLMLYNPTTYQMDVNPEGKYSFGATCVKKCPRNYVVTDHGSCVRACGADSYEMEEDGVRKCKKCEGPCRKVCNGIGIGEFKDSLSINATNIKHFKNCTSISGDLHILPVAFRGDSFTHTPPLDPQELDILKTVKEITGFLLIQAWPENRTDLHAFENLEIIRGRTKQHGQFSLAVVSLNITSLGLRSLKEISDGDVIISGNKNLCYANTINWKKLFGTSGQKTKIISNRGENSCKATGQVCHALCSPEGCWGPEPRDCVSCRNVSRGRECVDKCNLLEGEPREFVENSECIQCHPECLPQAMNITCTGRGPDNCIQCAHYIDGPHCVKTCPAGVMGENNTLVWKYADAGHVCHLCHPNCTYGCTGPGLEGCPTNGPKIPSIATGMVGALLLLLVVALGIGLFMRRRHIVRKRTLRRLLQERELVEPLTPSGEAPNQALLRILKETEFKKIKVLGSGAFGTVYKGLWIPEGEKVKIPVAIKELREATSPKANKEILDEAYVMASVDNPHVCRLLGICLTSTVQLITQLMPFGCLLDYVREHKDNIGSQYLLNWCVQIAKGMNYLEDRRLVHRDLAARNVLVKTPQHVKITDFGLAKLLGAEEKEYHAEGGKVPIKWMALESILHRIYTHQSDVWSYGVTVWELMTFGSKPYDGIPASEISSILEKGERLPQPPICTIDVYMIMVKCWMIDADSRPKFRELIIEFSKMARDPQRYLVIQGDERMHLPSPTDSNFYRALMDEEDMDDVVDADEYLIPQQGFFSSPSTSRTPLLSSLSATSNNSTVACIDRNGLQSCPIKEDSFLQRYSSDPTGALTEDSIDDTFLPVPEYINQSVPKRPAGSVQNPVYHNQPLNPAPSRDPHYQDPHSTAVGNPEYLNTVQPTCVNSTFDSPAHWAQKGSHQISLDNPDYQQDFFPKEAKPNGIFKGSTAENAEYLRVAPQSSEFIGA

[4] = tested on: A431 cancer cells; assay: MTT-based cytotoxicity assay under different O2 levels; format: cell-based, Human; details: A431, 72 h
[5] = Proton dissociation constants by pH-potentiometric titration; format: physicochemical; details: pH-potentiometry, 25.0 °C, I = 0.1 M (KCl)
Text: After reductive activation of the cobalt(III) prodrugs, it is essential to investigate whether the formed cobalt(II) complexes indeed can release the coordinated targeting ligand. For this reason, we selected two ternary systems as models to study the potential liberation of the (N,N) ligand from the mixed-ligand cobalt complex upon reduction. Thus, the aqueous stability of several cobalt(II) complexes was investigated under strictly anaerobic conditions. Due to the limited water solubility of cobalt(II) chloride complexes with L, model ligands with better solubility, namely, MeEn and PhEn, were used. First, deprotonation processes of the acetlyacetone (Hacac) and the fully protonated MeEn and PhEn ligands were followed at pH 2.0–11.5 (Table 2).
(§1) For determination of the proton dissociation (Ka) and formation constants (β) pH-potentiometric measurements were carried out at 25 ± 0.1 °C and an ionic strength (I) of 0.10 M (KCl) to keep the activity coefficients constant. A carbonate-free KOH solution (0.10 M) was used for titrations. The exact concentrations of HCl and KOH were determined by pH-potentiometric titrations. A Metrohm-combined electrode (type 6.0234.100) connected to an Orion 710A pH-meter and a computer-controlled Methrom 665 Dosimat buret (increment, 1 μL; precision, 2 μL) were used for the pH-potentiometric measurements. […] The determined average water ionization constant (pKw = 13.76 ± 0.01) corresponds well to the literature data.[37] Titration points included in the calculations gave a reproducibility within 0.005 pH unit. Titrations were performed in the pH range of 2.0–11.5, and the initial volume of the samples was 10 mL. Binary systems contained 1 or 2 mM ligand, and metal:ligand ratios of 1:1, 1:2, 1:3, and 1:4 were used. In the ternary systems, the cobalt(II) concentration was 1 mM and the two types of ligands (A, acac, and B, MeEn, or PhEn) were varied as follows: 1:1:1, 1:2:1, 1:1:2, and 1:2:2 Co(II):A:B. The samples were degassed by bubbling purified argon through them for 10 min prior to the measurements, and argon was also passed over the solutions during the titrations.

[6] = Overall stability constants of binary and ternary cobalt(II) complexes by pH-potentiometry; format: physicochemical; details: for fraction of ligand coordinated to cobalt(II): 1:2:1 cobalt(II)-acac-ligand system, computed from stability constants; for log β [Co(II)A2B]0 ternary complex / log β [Co(II)AB2]+ ternary complex / log β [Co(II)AB]+ ternary complex: A = acac, B = MeEn or PhEn
Procedure: Following the determination of the stability constants for the binary complexes (Table 2), overall stability constants for the mixed-ligand complexes formed in the cobalt(II)–acac–MeEn and cobalt(II)–acac–PhEn ternary systems were calculated on the basis of pH-potentiometric titrations. Three types of complexes were formed, [CoAB]^+, [CoA2B], and [CoAB2]^+, where “A” denotes acac and “B” refers to MeEn or PhEn. Concentration distribution curves in Figure 5 were computed using the stability constants of the 1:2:1 cobalt(II)–acac–PhEn composition that corresponds to the reduced form of Co(II)(acac)2L^0. […] For the 1:2:1 cobalt(II)–acac–MeEn system, ∼11% are still coordinated to cobalt(II) at pH 7.4 (Figure S6). However, it has to be mentioned that these calculations were performed for 1 mM cobalt(II) (where the titrations were performed), and the amount of the intact ternary complex further decreases with lower concentrations [e.g., in the latter system at pH 7.4 and 0.1 mM cobalt(II), the coordinated MeEn fraction is only ∼2%].
as §1
The stoichiometry of the complexes and overall stability constants were established by the computer program Hyperquad2013.[53] For the general equilibrium β(MpLqHr) is defined as [drawing 2] 1 where M denotes the cobalt(II) ion and L the completely deprotonated ligand. The calculations were performed as reported in our previous work.[54]

[7] = cited from earlier work
[8] = Cyclic voltammetry, cathodic peak potential Co(III)/Co(II); format: physicochemical; details: 10 mM phosphate buffer pH 7.40, 0.1 M KCl, scan rate 30 mV/s, 1.5 mM complex
Procedure: As the reduction process is crucial for the activation of cobalt(III)-based prodrug systems, the redox properties of the complexes were investigated to elucidate the effects of ligand methylation at different positions. Cyclic voltammetry measurements were performed in aqueous solution at pH 7.40 (10 mM phosphate buffer with 0.1 M KCl). […] Also, at a much higher scan speed of 1000 mV/s, the redox processes were still completely irreversible (Figure S5).
The compounds were dissolved in 10 mM phosphate buffer (pH 7.40), with 0.1 M KCl as the supporting electrolyte, to obtain a final concentration of 1.5 mM. Electrochemical experiments were conducted on an EG&G PARC 273A potentiostat/galvanostat with scan rates of 30 and 1000 mV/s at room temperature. Argon was bubbled through the solution before every measurement to remove oxygen. A three-electrode configuration cell was used with a glassy carbon electrode as the working electrode, which was polished before every measurement. The reference electrode was Ag/AgCl/KCl (3.5 M), and the auxiliary electrode was a platinum wire. Electrodes were conditioned regularly in 1 M H2SO4 for 5–10 cycles between voltage limits of −1.0 and 1.0 V at a scan rate of 100 mV/s. The system was calibrated with 1.5 mM K3[Fe(CN)6] for every experiment. Redox potentials measured relative to the Ag/AgCl/KCl (3.5 M) reference electrode were converted for potentials against NHE by the addition of 0.205 V. Measurements were repeated at least three times, and the mean values were calculated.

[9] = I = 0.1 M NaClO4; cited from earlier work
[10] = Homo sapiens, A-431, 1% O2, read-out: IC50 hypoxia with 1% O2
[11] = Homo sapiens, A-431, 21% O2, read-out: IC50 normoxia
[12] = 25.0 °C, I = 0.1 M (KCl), anaerobic
[13] = pH 7.0, NAD+/NADH or GSSG/GSH couple

Compound: [Cl-].[Cl-].[Co+2] [CoCl2]
- cytotoxic activity [1]: No significant cytotoxic activity

- IC50 [3]: 0.00041 µM
Compound: CNCCNc1ccc2ncnc(Nc3cccc(Br)c3)c2c1.Cl.Cl [MeL, N^4-(3-Bromophenyl)-N^6-[2-(methylamino)ethyl]quinazoline-4,6-diamine Dihydrochloride]
- EGFR-inhibitory potential (pEGFR, pERK 1/2) [2]: potent EGFR inhibition
- anticancer activity relative to L [4]: approximately twice as effective as L
- IC50 ([4]; Homo sapiens, A-431, 0.1% O2, read-out: IC50 hypoxia with 0.1% O2): 5.4 ± 0.8 µM
- IC50 [4, 10]: 5.5 ± 0.4 µM
- IC50 ([4]; Homo sapiens, A-431, 5% O2, read-out: IC50 hypoxia with 5% O2): 8.7 ± 1.2 µM
- IC50 [4, 11]: 6.9 ± 1.8 µM

- pKa1 [5]: 1.85 ± 0.01 ^c
- pKa2 [5]: 9.34 ± 0.01 ^c
- fraction of ligand coordinated to cobalt(II) ([6]; pH 7.4, 1 mM cobalt(II)): < 1%
- log β [Co(II)L2] binary complex [6, 12]: 6.75 ± 0.09
- log β [Co(II)L] binary complex [6, 12]: 3.63 ± 0.05
- log β [Co(II)A2B]0 ternary complex ([6]; 25.0 °C, I = 0.1 M (KCl)): 12.08 ± 0.09
- log β [Co(II)AB2]+ ternary complex ([6]; 25.0 °C, I = 0.1 M (KCl)): 11.29 ± 0.13
- log β [Co(II)AB]+ ternary complex ([6]; 25.0 °C, I = 0.1 M (KCl)): 8.03 ± 0.15
Compound: NCCNc1ccccc1 [PhEn, N-phenylethylenediamine]

Compound: N[C@@H](CCC(=O)N[C@@H](CS)C(=O)NCC(=O)O)C(=O)O [GSH, Glutathione]
- formal potential [7, 13]: −0.24 V

Compound: C#Cc1cccc(Nc2ncnc3cc(OCCOC)c(OCCOC)cc23)c1 [erlotinib, reference compound]
- IC50 [4, 10]: 14.4 ± 4 µM
- IC50 [4, 11]: 13.3 ± 4.7 µM

- pKa1 [5]: 7.04 ± 0.02
- pKa2 [5]: 9.98 ± 0.01
- fraction of ligand coordinated to cobalt(II) ([6]; pH 7.4, 0.1 mM cobalt(II)): ~2%
- fraction of ligand coordinated to cobalt(II) ([6]; pH 7.4, 1 mM cobalt(II)): ~11%
- log β [Co(II)L2] binary complex [6, 12]: 9.15 ± 0.02
- log β [Co(II)L3] binary complex [6, 12]: 12.94 ± 0.04
- log β [Co(II)L] binary complex [6, 12]: 5.26 ± 0.01
- log β [Co(II)A2B]0 ternary complex ([6]; 25.0 °C, I = 0.1 M (KCl)): 12.73 ± 0.09
- log β [Co(II)AB2]+ ternary complex ([6]; 25.0 °C, I = 0.1 M (KCl)): 13.20 ± 0.12
- log β [Co(II)AB]+ ternary complex ([6]; 25.0 °C, I = 0.1 M (KCl)): 9.82 ± 0.05
Compound: CNCCN [MeEn, N-methylethylenediamine]

- cathodic peak potential (Ec) vs NHE [8]: -200 mV
Compound: Bis(3-methyl-2,4-pentanedionato) (Methyl-1,2-ethanediamine) Cobalt(III) Hexafluorophosphate [Co(Meacac)2MeEn^+]

Compound: CC(=O)C=C(C)[O-].CC(=O)C=C(C)[O-].NCCN.[Co+2] [[Co(II)(acac)2en]]
- cytotoxic activity ([1]; A431 cells, both normoxia and hypoxia): No significant cytotoxic activity

- cathodic peak potential (Ec) vs NHE [8]: -152 mV
Compound: Bis(2,4-pentanedionato) (Methyl-1,2-ethanediamine) Cobalt(III) Hexafluorophosphate [Co(acac)2MeEn^+]

- cathodic peak potential (Ec) vs NHE [8]: 17 mV
Compound: CC(=O)[C-](C)C(C)=O.CC(=O)[C-](C)C(C)=O.CNCCNc1ccc2ncnc(Nc3cccc(Br)c3)c2c1.[Cl-].[Co+3] [Co(Meacac)2MeL^+, Bis(3-methyl-2,4-pentanedionato) N^4-(3-Bromophenyl)-N^6-[2-(methylamino)ethyl]quinazoline-4,6-diamine Cobalt(III) Chloride]
- EGFR-inhibitory potential (pEGFR, pERK 1/2) [2]: distinctly weakened EGFR-inhibitory potential
- increase in cytotoxicity at 0.1% O2 compared to normoxic conditions [4]: 2.9 fold
- IC50 ([4]; 0.1% O2, read-out: IC50 hypoxia with 0.1% O2): 19.9 ± 1 µM
- IC50 ([4]; 1% O2, read-out: IC50 hypoxia with 1% O2): ~32 µM and 32 µM
- IC50 ([4]; 5% O2, read-out: IC50 hypoxia with 5% O2): 55.2 ± 1.4 µM
- IC50 ([4]; 21% O2, read-out: IC50 normoxia): 58.6 ± 4.4 µM

Compound: NC(=O)C1=CN([C@@H]2O[C@H](COP(=O)(O)OP(=O)(O)OC[C@H]3O[C@@H](n4cnc5c(N)ncnc54)[C@H](O)[C@@H]3O)[C@@H](O)[C@H]2O)C=CC1 [NADH, reduced nicotinamide adenine dinucleotide]
- formal potential [7, 13]: −0.32 V

Compound: CC(=O)CC(C)=O [acac, acetylacetone]
- pKa1 [5]: 8.80 ± 0.01 ^b
- log β [Co(II)L2] binary complex [6, 12]: 8.66 ± 0.05 ^b
- log β [Co(II)L] binary complex [6, 12]: 5.05 ± 0.02 ^b
- pKa [9]: 8.82

Compound: O=C1O[C@H]([C@@H](O)CO)C(O)=C1O [AA, ascorbic acid]
- formal potential, higher values suggested by recent literature [7]: 0.35–0.50 V
- formal potential ([7]; dehydro-L-ascorbate/AA at pH 7.0): 0.06 V
